Experimental data published in patent publication US4211551A, “Herbicide” (Siegfried AG, priority 1976, dated 1980).

Legend:
[1] = test system: Camomile (Matricaria chamomilla); test: Field test, herbicidal % effect on weeds (logarithmic sprayer); type: in vivo; conditions: four weeks
Text: (§1) The composition prepared according to example 6 was used in field tests and compared with a composition of the type set forth in example 6 with the modification that the CBPA was replaced by the same amount of a conventional herbicide, i.e. Methabenzthiazuron (BSI approved common name). A "logarithmic" spraying apparatus of the type known in herbicide evaluation was used for these tests. This apparatus comprises an elongated spraying device connected with a reservoir for the composition to be tested, and a water reservoir. Separate test areas were sprayed with this apparatus and each composition was applied as an aqueous suspension. […] The apparatus was operated such that the initial concentration of the active ingredient was equivalent to 10 kg/ha and decreased as follows:
(§2) The amount of water applied by the apparatus remained constant and was equivalent to 666 liters per hectare. The tests were made in early August of 1976. The test areas were seeded with crop plant on a substantially weed-free soil, a middle-heavy sandy clay. One test area (zero-control) was seeded but not sprayed. Four weeks thereafter, the treated areas were inspected to determine the number of individual weed plants per square meter for five significant types of weeds and to calculate the percent effect according to the formula
(§3) wherein AK is the number of the individual plants of the specific weed in the untreated zero-control area and AB is the corresponding number of weed plants in the treated area. The results of these tests for three different dosage amounts with the inventive CBPA (column A) and the prior art Methabenzthiazuron are summarized in Table I below. This table further includes compatibility data of three types of crop plants for the tested composition. Crop compatibility was rated according to the evaluation scale of the "European Weed Research Council (EWRC)." In this scale, numeral 1 indicates complete absence of plant damage symptoms while numeral 9 indicates complete damage. For practical purposes, the crop tolerance limit is assumed to be between numerals 4 and 5.

[2] = test system: Chickweed (Stellaria media); test: as above; type: in vivo; conditions: four weeks
Text: as §1, §2, §3

[3] = test system: Lambs Quarters (Chenopodium album); test: as above; type: in vivo; conditions: four weeks
Text: as §1, §2, §3

[4] = test system: Rough Henbit (Lamium purpureum); test: as above; type: in vivo; conditions: four weeks
Text: as §1, §2, §3

[5] = test system: Shepherds Purse (Capsella bursa-pastoris); test: as above; type: in vivo; conditions: four weeks
Text: as §1, §2, §3

[6] = test system: five significant types of weeds; test: Field test, average weed effect over five weeds; type: in vivo; conditions: four weeks
Text: as §1, §2, §3

[7] = test system: Corn (Zea mais); test: Field test, crop compatibility (EWRC-evaluation); type: in vivo
Text: as §1, §2, §3

[8] = test system: Green beans; test: Field test, crop compatibility (EWRC-evaluation); type: in vivo
Text: as §1, §2, §3

[9] = test system: weed infested crop area; test: Treatment of weed infested crop area in the two to four leave state; type: in vivo
[10] = test system: Annual meadow grass (Poa annua); test: Further field tests, control of Graminae weeds; type: in vivo
Text: as §1, §2

[11] = test system: Barnyard Grass (Echinochloa crus-galli); test: Further field tests, control of Graminae weeds; type: in vivo
Text: as §1, §2

[12] = test system: Common wild oat (Avena fatua); test: Further field tests, control of Graminae weeds; type: in vivo
Text: as §1, §2

[13] = test system: Wild oat (Avena fatua); test: Green-house test, control of Wild oat (EWRC-scale); type: in vivo; conditions: scale 1 = complete absence of plant damage, 9 = complete damage
Text: as §3
Green-house tests were made to determine the activity of CBPA in the control of Wild oat (Avena fatua), a very noxious weed in many crop cultures. The test plants were seeded and cultured in pots at temperatures of 20° to 21° C. Effectivity tests were made when the plants had reached the two-leave to four-leave state, i.e. when the total plant height was about 10 to 12 cm. The amount of water applied in addition to the composition was equivalent to 1000 liters per hectare in each case. As a comparative substance (formulated in the same manner as the inventive CBPA or its salts) a recently developed standard herbicide, Diclofop-methyl, (BSI-approved common name) was used.
The effects were rated again by the EWRC-scale mentioned above and the results are given in Table II below indicating the results at varying amounts of the applied substance (in kilograms of active substance per hectare) after 7, 14 and 21 days subsequent to the treatment.

[14] = test system: monocotyledonous and dicotyledonous weeds; test: Herbicidal effectiveness against monocotyledonous and dicotyledonous weeds; type: in vivo; conditions: pre-emergence and post-emergence treatment
[15] = test system: weeds of the Graminae family; test: Herbicidal effectiveness against Graminae weeds; type: in vivo; conditions: such as Barnyard grass, Annual meadow-grass, Wild Oat
[16] = test system: mice; conditions: cited from earlier work
[17] = test system: Barley; test: Field test, crop compatibility (EWRC-evaluation); type: in vivo; conditions: scale 1 = complete absence of plant damage symptoms, 9 = complete damage
Text: as §1, §2, §3

## O=C(O)COc1ccc(Cc2ccc(Cl)cc2)cc1 [CBPA, 4-(4'-chlorobenzyl)-phenoxy acetic acid]
[1]; 2.65 kg/ha a.i.
  Herbicidal % effect on specific weeds: 70%
[1]; 4.3 kg/ha a.i.
  Herbicidal % effect on specific weeds: 90%
[1]; 6.7 kg/ha a.i.
  Herbicidal % effect on specific weeds: 100%
[2]; 2.65 kg/ha a.i.
  Herbicidal % effect on specific weeds: 83%
[2]; 4.3 kg/ha a.i.
  Herbicidal % effect on specific weeds: 100%
[2]; 6.7 kg/ha a.i.
  Herbicidal % effect on specific weeds: 100%
[3]; 2.65 kg/ha a.i.
  Herbicidal % effect on specific weeds: 83%
[3]; 4.3 kg/ha a.i.
  Herbicidal % effect on specific weeds: 100%
[3]; 6.7 kg/ha a.i.
  Herbicidal % effect on specific weeds: 100%
[4]; 2.65 kg/ha a.i.
  Herbicidal % effect on specific weeds: 89%
[4]; 4.3 kg/ha a.i.
  Herbicidal % effect on specific weeds: 91%
[4]; 6.7 kg/ha a.i.
  Herbicidal % effect on specific weeds: 97%
[5]; 2.65 kg/ha a.i.
  Herbicidal % effect on specific weeds: 84%
[5]; 4.3 kg/ha a.i.
  Herbicidal % effect on specific weeds: 96%
[5]; 6.7 kg/ha a.i.
  Herbicidal % effect on specific weeds: 100%
[6]; 2.65 kg/ha a.i.
  Average weed effect (%): 81.8%
[6]; 4.3 kg/ha a.i.
  Average weed effect (%): 95.4%
[6]; 6.7 kg/ha a.i.
  Average weed effect (%): 99.4%
[7]; in vivo
  Crop compatibility (EWRC-evaluation): 1
[8]; in vivo
  Crop compatibility (EWRC-evaluation): 1
[9]; two to four leave state, in addition to residual effectiveness
  Contact effect: remarkable contact effect
[9]; weeds and crops in two to four leave state
  Result of treatment in two to four leave state: positive results
[10]
  Effectiveness for control of Graminae weeds: remarkable effectiveness
[11]
  Effectiveness for control of Graminae weeds: remarkable effectiveness
[12]
  Effectiveness for control of Graminae weeds: remarkable effectiveness
[13]; 1 kg/ha, 7 days
  Effect on Wild oat rated by EWRC-scale: 3
[13]; 1 kg/ha, 14 days
  Effect on Wild oat rated by EWRC-scale: 4
[13]; 1 kg/ha, 21 days
  Effect on Wild oat rated by EWRC-scale: 4
[13]; 2 kg/ha, 7 days
  Effect on Wild oat rated by EWRC-scale: 4
[13]; 2 kg/ha, 14 days
  Effect on Wild oat rated by EWRC-scale: 6
[13]; 2 kg/ha, 21 days
  Effect on Wild oat rated by EWRC-scale: 8
[13]; 4 kg/ha, 7 days
  Effect on Wild oat rated by EWRC-scale: 5
[13]; 4 kg/ha, 14 days
  Effect on Wild oat rated by EWRC-scale: 9
[13]; 4 kg/ha, 21 days
  Effect on Wild oat rated by EWRC-scale: 9
[13]; 8 kg/ha, 7 days
  Effect on Wild oat rated by EWRC-scale: 5
[13]; 8 kg/ha, 14 days
  Effect on Wild oat rated by EWRC-scale: 9
[13]; 8 kg/ha, 21 days
  Effect on Wild oat rated by EWRC-scale: 9
[14]
  Herbicidal effectiveness against monocotyledonous and dicotyledonous weeds: remarkable degree of effectiveness
[14]; listed as 4-(4'-chlorobenzyl)-phenoxy acetic acid
  Herbicidal effectiveness against monocotyledonous and dicotyledonous weeds: surprisingly high degree of herbicidal effectiveness
[15]
  Effectiveness when controlling weeds of the Graminae family: particularly beneficial and high degree of effectiveness
[16]
  LD50 (acute oral toxicity): 2700 mg per kilogram of body weight

## COC(=O)C(C)Oc1ccc(Oc2ccc(Cl)cc2Cl)cc1 (centres unmarked) [Diclofop-methyl, reference compound]
[13]; 1 kg/ha, 7 days
  Effect on Wild oat rated by EWRC-scale: 2
[13]; 1 kg/ha, 14 days
  Effect on Wild oat rated by EWRC-scale: 4
[13]; 1 kg/ha, 21 days
  Effect on Wild oat rated by EWRC-scale: 4
[13]; 2 kg/ha, 7 days
  Effect on Wild oat rated by EWRC-scale: 3
[13]; 2 kg/ha, 14 days
  Effect on Wild oat rated by EWRC-scale: 5
[13]; 2 kg/ha, 21 days
  Effect on Wild oat rated by EWRC-scale: 5
[13]; 4 kg/ha, 7 days
  Effect on Wild oat rated by EWRC-scale: 5
[13]; 4 kg/ha, 14 days
  Effect on Wild oat rated by EWRC-scale: 7
[13]; 4 kg/ha, 21 days
  Effect on Wild oat rated by EWRC-scale: 8
[13]; 8 kg/ha, 7 days
  Effect on Wild oat rated by EWRC-scale: 5
[13]; 8 kg/ha, 14 days
  Effect on Wild oat rated by EWRC-scale: 6
[13]; 8 kg/ha, 21 days
  Effect on Wild oat rated by EWRC-scale: 8

## CNC(=O)N(C)c1nc2ccccc2s1 [Methabenzthiazuron, reference compound]
[1]; 2.65 kg/ha a.i.
  Herbicidal % effect on specific weeds: 88%
[1]; 4.3 kg/ha a.i.
  Herbicidal % effect on specific weeds: 100%
[1]; 6.7 kg/ha a.i.
  Herbicidal % effect on specific weeds: 100%
[2]; 2.65 kg/ha a.i.
  Herbicidal % effect on specific weeds: 100%
[2]; 4.3 kg/ha a.i.
  Herbicidal % effect on specific weeds: 100%
[2]; 6.7 kg/ha a.i.
  Herbicidal % effect on specific weeds: 100%
[3]; 2.65 kg/ha a.i.
  Herbicidal % effect on specific weeds: 87%
[3]; 4.3 kg/ha a.i.
  Herbicidal % effect on specific weeds: 94%
[3]; 6.7 kg/ha a.i.
  Herbicidal % effect on specific weeds: 98%
[4]; 2.65 kg/ha a.i.
  Herbicidal % effect on specific weeds: 0%
[4]; 4.3 kg/ha a.i.
  Herbicidal % effect on specific weeds: 73%
[4]; 6.7 kg/ha a.i.
  Herbicidal % effect on specific weeds: 80%
[5]; 2.65 kg/ha a.i.
  Herbicidal % effect on specific weeds: 95%
[5]; 4.3 kg/ha a.i.
  Herbicidal % effect on specific weeds: 99%
[5]; 6.7 kg/ha a.i.
  Herbicidal % effect on specific weeds: 100%
[6]; 2.65 kg/ha a.i.
  Average weed effect (%): 74%
[6]; 4.3 kg/ha a.i.
  Average weed effect (%): 91.5%
[6]; 6.7 kg/ha a.i.
  Average weed effect (%): 95.6%
[17]; 2.65 kg/ha a.i., tolerance limit between 4 and 5
  Crop compatibility (EWRC-evaluation): 1
[17]; 4.3 kg/ha a.i.
  Crop compatibility (EWRC-evaluation): 1
[17]; 6.7 kg/ha a.i., tolerance limit between 4 and 5
  Crop compatibility (EWRC-evaluation): 5
[7]; Corn, 2.65 kg/ha a.i., scale 1 = complete absence of plant damage symptoms, 9 = complete damage, tolerance limit between 4 and 5
  Crop compatibility (EWRC-evaluation): 1
[7]; Corn, 4.3 kg/ha a.i., scale 1 = complete absence of plant damage symptoms, 9 = complete damage
  Crop compatibility (EWRC-evaluation): 1
[7]; Corn, 6.7 kg/ha a.i., scale 1 = complete absence of plant damage symptoms, 9 = complete damage
  Crop compatibility (EWRC-evaluation): 1
[8]; Green beans, 2.65 kg/ha a.i., scale 1 = complete absence of plant damage symptoms, 9 = complete damage, tolerance limit between 4 and 5
  Crop compatibility (EWRC-evaluation): 1
[8]; Green beans, 4.3 kg/ha a.i., scale 1 = complete absence of plant damage symptoms, 9 = complete damage
  Crop compatibility (EWRC-evaluation): 1
[8]; Green beans, 6.7 kg/ha a.i., scale 1 = complete absence of plant damage symptoms, 9 = complete damage
  Crop compatibility (EWRC-evaluation): 1
